Measured values as given in patent publication US6410792B1, “Amide derivatives and methods for using the same as selective neuropeptide Y receptor antagonists” (Bayer Corporation, priority 1997, dated 2002).
Structures can show the parent of a compound that is named as a salt. Where two headings read alike, the source gives them in different places.

How the values were obtained:
[1] = target: T1, Human NPY1 receptor (Homo sapiens, UniProt P25929); assay: Human NPY1 receptor binding assay ([125I]PYY, SK-N-MC cells); details: [125I]PYY, SK-N-MC cells; read-out: hNPYI IC50
T1 construct: host or cells: SK-N-MC cells
T1 sequence (P25929 1-384): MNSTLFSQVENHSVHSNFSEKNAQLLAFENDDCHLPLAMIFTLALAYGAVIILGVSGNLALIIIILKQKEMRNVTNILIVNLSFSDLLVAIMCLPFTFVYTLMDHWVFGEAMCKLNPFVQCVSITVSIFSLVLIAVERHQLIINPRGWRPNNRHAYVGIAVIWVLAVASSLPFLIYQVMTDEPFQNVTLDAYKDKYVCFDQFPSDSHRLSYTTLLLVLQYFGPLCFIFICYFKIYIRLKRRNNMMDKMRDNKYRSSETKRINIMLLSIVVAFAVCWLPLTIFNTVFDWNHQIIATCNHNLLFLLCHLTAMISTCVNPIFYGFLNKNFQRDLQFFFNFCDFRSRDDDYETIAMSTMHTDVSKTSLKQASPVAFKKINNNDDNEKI
Procedure: A. Human NPY1 Receptor Binding Assay
This is a modification of Gordon et al., (J. Neurochem. 55:506-513, 1990). SK-N-MC cell (ATCC, Rockville, Md.) were plated in 24-well plates. Once confluent, cells were rinsed with Dulbecco's phosphate buffered saline (DPBS). Cells were then preincubated in binding buffer containing serum-free DMEM, 25 mM HEPES (pH 7.3), 0.5% bovine serum albumin (BSA), 0.1% bacitracin and 0.1 mM phenylmethylsulfonylfluoride for 30 minutes at room temperature. Drug dilution and [125I]PYY (˜50 pM: NEN-DuPont) were added to the wells, and the cells were incubated for an additional 3 hours at room temperature, followed by rinsing with ice-cold DPBS. Nonspecific binding was defined with 1 μM NPY. After lysing the cells with 1% Triton X-100, the amount of radioactivity in the lysates was quantitated with a gamma counter.

[2] = target: T2, Y2 receptor (Homo sapiens, UniProt P49146); assay: Y2 receptor binding assay ([125I]PYY, membrane protein); details: [125I]PYY, membrane protein; read-out: hNPY2 IC50
T2 sequence (P49146 1-381): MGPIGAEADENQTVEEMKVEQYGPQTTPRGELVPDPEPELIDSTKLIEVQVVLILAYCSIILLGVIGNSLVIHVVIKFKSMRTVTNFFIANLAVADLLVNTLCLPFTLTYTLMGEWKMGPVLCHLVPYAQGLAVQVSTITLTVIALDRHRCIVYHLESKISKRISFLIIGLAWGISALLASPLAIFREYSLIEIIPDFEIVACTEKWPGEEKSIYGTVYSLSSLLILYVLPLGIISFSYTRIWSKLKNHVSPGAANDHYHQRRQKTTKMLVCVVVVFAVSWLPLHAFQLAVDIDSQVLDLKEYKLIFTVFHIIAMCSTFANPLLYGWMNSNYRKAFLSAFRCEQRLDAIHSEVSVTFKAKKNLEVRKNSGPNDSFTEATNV
Outline: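 Filtration binding with membrane protein and drug dilution, 2 h at room temperature with mixing, radioactivity counted by gamma or scintillation. Y2: 25 pM [125I]PYY in Krebs-Ringer bicarbonate pH 7.4 with 0.01% BSA, nonspecific by 1 μM NPY. Y4/PP1: 50 pM [125I]hPP in HEPES-buffered saline pH 7.4 with protease inhibitors and 0.3% BSA, nonspecific by 1 μM hPP.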

[3] = target: human Y4/PP1 receptor (Homo sapiens, UniProt P50391); assay: Human Y4/PP1 receptor binding assay ([125I]human PP, membrane protein); details: [125I]human PP, membrane protein; read-out: hNPY4 IC50
human Y4/PP1 receptor, sequence (P50391 whole entry): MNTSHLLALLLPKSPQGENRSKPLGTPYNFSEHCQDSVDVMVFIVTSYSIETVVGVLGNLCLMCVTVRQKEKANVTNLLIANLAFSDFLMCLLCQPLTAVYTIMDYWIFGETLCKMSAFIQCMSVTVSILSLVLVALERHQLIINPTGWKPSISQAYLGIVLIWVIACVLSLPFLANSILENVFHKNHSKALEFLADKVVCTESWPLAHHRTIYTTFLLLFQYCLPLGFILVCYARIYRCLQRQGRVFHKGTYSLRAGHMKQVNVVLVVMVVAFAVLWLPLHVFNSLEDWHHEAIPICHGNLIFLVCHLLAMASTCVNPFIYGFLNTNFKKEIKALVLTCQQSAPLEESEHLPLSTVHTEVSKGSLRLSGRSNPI
Procedure: B. Human Y2 and Y4/PP1 Receptor Binding Assays
Binding assays were performed on GF/C Millipore 96-well plates pretreated with 0.02% polyethylenimine. The binding buffer for rat Y2 binding is Krebs-Ringer bicarbonate (pH 7.4) containing 0.01% BSA and 0.005% bacitracin. Samples consist of membrane protein, 25 pM [1251]PYY and drug dilution. Nonspecific binding is defined by 1 μM NPY. The binding buffer for human Y4/PP1 binding consists of 137 mM NaCl, 5.4 mM KCl, 0.44 mM KH2PO4, 1.26 mM CaCl2, 0.81 mM MgSO4, 20 mM HEPES, 1 mM dithiothreitol, 0.1% bacitracin, 100 mg/l streptomycin sulfate, 1 mg/l aprotinin, 10 mg/ml soybean trypsin inhibitor and 0.3% BSA, pH 7.4. Samples consist of membrane protein, 50 pM human [1251]human PP (hPP: NEN DuPont, Boston, Mass.) and drug dilution. 1 μM hPP is used to define nonspecific binding.
After a 2 hour incubation at room temperature with constant mixing, the samples are aspirated on a vacuum manifold, and rinsed with ice-cold binding buffer. The amount of radioactivity in each well is quantitated with either gamma counting or liquid scintillation.

[4] = target: T3, Human NPY5 receptor (Homo sapiens, UniProt Q15761); assay: Human NPY5 receptor binding assay ([125I]PYY, membrane protein)
T3 sequence (Q15761 1-445): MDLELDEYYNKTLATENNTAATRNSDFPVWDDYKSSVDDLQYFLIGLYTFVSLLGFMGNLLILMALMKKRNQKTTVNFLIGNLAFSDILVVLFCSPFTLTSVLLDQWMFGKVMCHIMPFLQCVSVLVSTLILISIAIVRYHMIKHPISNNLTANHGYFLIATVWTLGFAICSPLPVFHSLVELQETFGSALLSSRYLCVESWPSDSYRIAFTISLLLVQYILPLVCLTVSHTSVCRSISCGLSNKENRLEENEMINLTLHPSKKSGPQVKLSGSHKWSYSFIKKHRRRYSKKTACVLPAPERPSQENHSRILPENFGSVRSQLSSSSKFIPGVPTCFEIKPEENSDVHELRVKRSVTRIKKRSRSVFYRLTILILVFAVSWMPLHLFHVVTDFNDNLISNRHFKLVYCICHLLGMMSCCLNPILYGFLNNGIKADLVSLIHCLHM
Outline: (§1)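 Membrane protein incubated 2 h at room temperature with 75-100 pM porcine [125I]PYY and compound in pH 7.4 Tris buffer with salts, 0.1% BSA and bacitracin. Nonspecific binding with 1 μM PYY. Filtration, then gamma or scintillation counting.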

[5] = target: T4, Rat NPY5 receptor (Rattus norvegicus, UniProt Q63634); assay: Rat NPY5 receptor binding assay ([125I]PYY, membrane protein)
T4 sequence (Q63634 1-445): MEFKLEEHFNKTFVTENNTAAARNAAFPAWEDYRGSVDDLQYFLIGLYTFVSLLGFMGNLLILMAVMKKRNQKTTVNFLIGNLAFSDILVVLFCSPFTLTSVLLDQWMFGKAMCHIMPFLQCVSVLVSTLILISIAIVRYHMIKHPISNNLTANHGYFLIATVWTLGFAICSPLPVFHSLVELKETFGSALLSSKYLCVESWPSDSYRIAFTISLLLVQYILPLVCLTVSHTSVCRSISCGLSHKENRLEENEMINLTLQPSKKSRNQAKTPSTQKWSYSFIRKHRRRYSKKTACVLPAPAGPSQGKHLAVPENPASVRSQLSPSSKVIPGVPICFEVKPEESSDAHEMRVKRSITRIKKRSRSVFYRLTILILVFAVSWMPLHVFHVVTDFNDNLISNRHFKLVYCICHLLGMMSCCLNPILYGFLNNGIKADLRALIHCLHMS
Outline: as §1

[6] = [125I]PYY, read-out: hNPY5 IC50
[7] = [125I]PYY, read-out: rNPY5 IC50

`O=C(CNCCCn1c(=O)[nH]c2ccccc21)Nc1ccc(-c2ccccc2)cc1` [Compound 277, N-Biphenyl-4-yl-2-[3-(2-oxo-2,3-dihydro-benzoimidazol-1-yl)-propylamino]-acetamide] gave an IC50 [1] of over 5 µM, an IC50 [2] of over 5 µM and an IC50 [3] of over 5 µM. For the same compound, the IC50 [4, 6] was 0.89 µM and the IC50 [5, 7] was 1.6 µM.
In the case of `O=C(Nc1ccc(C2CCCCC2)cc1)C(c1ccccc1)N1CCC(n2c(=O)[nH]c3ccccc32)CC1` (centres unmarked) [Compound 313, N-(4-Cyclohexyl-phenyl)-2-[4-(2-oxo-2,3-dihydro-benzoimidazol-1-yl)-piperidin-1-yl]-2-phenyl-acetamide], the IC50 [1] is reported as over 5 µM, the IC50 [2] is reported as over 5 µM and the IC50 [3] is reported as over 5 µM. The IC50 ([4]; hNPY5 IC50, [125I]PYY) was 0.035 µM and the IC50 ([5]; rNPY5 IC50, [125I]PYY) was 0.02 µM.
With `O=C(CN1CCC(n2c(=O)[nH]c3ccccc32)CC1)Nc1ccccc1-c1ccccc1` [Compound 324, N-Biphenyl-2-yl-2-[4-(2-oxo-2,3-dihydro-benzoimidazol-1-yl)-piperidin-1-yl]-acetamide; hydrochloride] the IC50 [1] was over 5 µM, the IC50 [2] was over 5 µM and the IC50 [3] was over 5 µM. For the same compound, the IC50 [4, 6] was 0.39 µM and the IC50 [5, 7] was 0.69 µM.
For `O=C(CN1CCC(n2c(=O)[nH]c3ccccc32)CC1)Nc1ccc2c(c1)Cc1ccccc1-2` [Compound 325, N-(9H-Fluoren-2-yl)-2-[4-(2-oxo-2,3-dihydro-benzoimidazol-1-yl)-piperidin-1-yl]-acetamide], the IC50 [1] was over 5 µM, the IC50 [2] was over 5 µM and the IC50 [3] was over 5 µM. It also gave an IC50 [4, 6] of 0.006 µM and an IC50 [5, 7] of 0.004 µM.
With `CC(C(=O)Nc1ccc(-c2ccccc2)cc1)N1CCC(n2c(=O)[nH]c3ccccc32)CC1` (centres unmarked) [Compound 329, N-Biphenyl-4-yl-2-[4-(2-oxo-2,3-dihydro-benzoimidazol-1-yl)-piperidin-1-yl]-propionamide; hydrochloride] the IC50 [1] was over 5 µM, the IC50 [2] was over 5 µM and the IC50 [3] was over 5 µM. For the same compound, the IC50 [4, 6] was 0.02 µM and the IC50 [5, 7] was 0.016 µM.
With `Nc1cc(S(=O)(=O)c2ccccc2)ccc1NC(=O)CN1CCC(n2c(=O)[nH]c3ccccc32)CC1` [Compound 335, N-(2-Amino-4-benzenesulfonyl-phenyl)-2-[4-(2-oxo-2,3-dihydro-benzoimidazol-1-yl)-piperidin-1-yl]-acetamide, reference compound] the IC50 [1] was over 5 µM, the IC50 [2] was over 5 µM and the IC50 [3] was over 5 µM. It also gave an IC50 [4, 6] of 0.11 µM and an IC50 [5, 7] of 0.098 µM.
For `CCN(CC)c1ccc(NC(=O)CN2CCC(n3c(=O)[nH]c4ccccc43)CC2)cc1` [Compound 336, N-(4-Diethylamino-phenyl)-2-[4-(2-oxo-2,3-dihydro-benzoimidazol-1-yl)-piperidin-1-yl]-acetamide, reference compound], the IC50 [1] was over 5 µM, the IC50 [2] was over 5 µM and the IC50 [3] was over 5 µM. For the same compound, the IC50 [4, 6] was 0.22 µM and the IC50 [5, 7] was 0.205 µM.
With `CN(C)c1cccc(NC(=O)CN2CCC(n3c(=O)[nH]c4ccccc43)CC2)c1` [Compound 338, reference compound] the IC50 [1] was over 5 µM, the IC50 [2] was over 5 µM and the IC50 [3] was over 5 µM. For the same compound, the IC50 [4, 6] was 0.91 µM and the IC50 [5, 7] was 1.2 µM.
`CCCCOc1ccc2ccc(NC(=O)CN3CCC(n4c(=O)[nH]c5ccccc54)CC3)cc2c1` [Compound 343, N-(7-Butoxy-naphthalen-2-yl)-2-[4-(2-oxo-2,3-dihydro-benzoimidazol-1-yl)-piperidin-1-yl]-acetamide, reference compound] showed an IC50 [1] of over 5 µM, an IC50 [2] of over 5 µM and an IC50 [3] of over 5 µM. The IC50 [4, 6] was 0.11 µM and the IC50 [5, 7] was 0.045 µM.
`O=C(CN1CCC(n2c(=O)[nH]c3ccccc32)CC1)Nc1ccc2cn[nH]c2c1` [Compound 344, N-(1H-Indazol-6-yl)-2-[4-(2-oxo-2,3-dihydro-benzoimidazol-1-yl)-piperidin-1-yl]-acetamide, reference compound] showed an IC50 [1] of over 5 µM, an IC50 [2] of over 5 µM and an IC50 [3] of over 5 µM. It also gave an IC50 [4, 6] of 2.7 µM and an IC50 [5, 7] of 1.7 µM.
In the case of `CCOc1ccc(NC(=O)CN2CCC(n3c(=O)[nH]c4ccccc43)CC2)cc1` [Compound 347, N-(4-Ethoxy-phenyl)-2-[4-(2-oxo-2,3-dihydro-benzoimidazol-1-yl)-piperidin-1-yl]-acetamide, reference compound], the IC50 [1] is reported as over 5 µM, the IC50 [2] is reported as over 5 µM and the IC50 [3] is reported as over 5 µM. The IC50 [4, 6] was 0.143 µM and the IC50 [5, 7] was 0.13 µM.
For `O=C(CN1CCC(n2c(=O)[nH]c3ccccc32)CC1)Nc1ccccc1Cl` [Compound 348, N-(2-Chloro-phenyl)-2-[4-(2-oxo-2,3-dihydro-benzoimidazol-1-yl)-piperidin-1-yl]-acetamide, reference compound], the IC50 [1] was over 5 µM, the IC50 [2] was over 5 µM and the IC50 [3] was over 5 µM. For the same compound, the IC50 [4, 6] was 1.2 µM and the IC50 [5, 7] was over 10 µM.
`NC(=O)c1ccc(NC(=O)CN2CCC(n3c(=O)[nH]c4ccccc43)CC2)cc1` [Compound 350, 4-(2-[4-(2-Oxo-2,3-dihydro-benzoimidazol-1-yl)-piperidin-1-yl]-acetylamino)-benzamide, reference compound] showed an IC50 [1] of over 5 µM, an IC50 [2] of over 5 µM and an IC50 [3] of over 5 µM. The IC50 [4, 6] was 2.3 µM and the IC50 [5, 7] was 1.4 µM.
